Source: US6107064A, “Process for producing xanthine derivatives with bacteria and fungi” (Kyowa Hakko Kogyo Co., Ltd., priority 1994, dated 2000)

Legend:
adenosine A1 receptor = target: T1, adenosine A1 receptor (Rattus norvegicus, UniProt P25099); test: Adenosine A1 Receptor Binding Test (3H-CHA binding, corpus striatum); details: 3H-CHA 1.1 nM, 25° C., 90 minutes
T1 construct: from tissue; host or cells: rat corpus striatum, washed membrane suspension
T1 sequence (P25099 1-326): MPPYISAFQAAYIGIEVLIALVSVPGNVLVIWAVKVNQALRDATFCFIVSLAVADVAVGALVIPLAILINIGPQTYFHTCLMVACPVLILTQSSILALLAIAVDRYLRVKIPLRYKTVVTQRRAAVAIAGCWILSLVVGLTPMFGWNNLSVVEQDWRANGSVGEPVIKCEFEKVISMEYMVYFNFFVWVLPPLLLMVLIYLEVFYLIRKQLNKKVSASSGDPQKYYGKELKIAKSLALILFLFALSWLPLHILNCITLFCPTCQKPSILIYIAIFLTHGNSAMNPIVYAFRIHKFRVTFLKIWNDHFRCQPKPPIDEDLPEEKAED
Protocol: The test was conducted according to the method of Bruns et al. [Mol. Pharmacol., 29, 331 (1986)] with slight modification.
Corpus striatum of a rat was suspended in ice-cooled 50 mM Tris hydroxymethyl aminomethane hydrochloride (Tris HCl) buffer (pH 7.7) by using Polytron homogenizer (manufactured by Kinematicas Co.) The suspension was centrifuged (50,000×g, 10 minutes), and the precipitate was suspended again in the same amount of 50 mM Tris HCl buffer. The suspension was centrifuged under the same conditions, and the final precipitate was suspended once again in 50 mM Tris HCl buffer to give a tissue concentration of 100 mg (wet weight)/ml. The tissue suspension was allowed to stand at 37° C. for 30 minutes in the presence of 0.02 unit/mg tissue of adenosine deaminase (manufactured by Sigma Co.) The tissue suspension was centrifuged (50,000×g, 10 minutes) and to the obtained precipitates was added 50 mM Tris HCl buffer to give a tissue concentration of 10 mg (wet weight)/ml.
To 1 ml of the tissue suspension thus prepared were added 50 μl of cyclohexyladenosine labeled with tritium (^3 H-CHA: 27 Ci/mmol, manufactured by New England Nuclear) (final concentration: 1.1 nM) and 50 μl of a test compound. The resulting mixture was allowed to stand at 25° C. for 90 minutes and then rapidly filtered by suction through a glass fiber filter (GF/C, manufactured by Whatman Co.) The filter was immediately washed three times with 5 ml each of ice-cooled 50 mM Tris HCl buffer, and transferred to a vial, and a scintillator (EX-H, manufactured by Wako Pure Chemical Industries, Ltd.) was added thereto. The radioactivity on the filter was determined with a liquid scintillation counter (manufactured by Packard Instrument Co.)
The inhibition rate (Ki value) of the test compound against the binding of A1 receptors (^3 H-CHA binding) was calculated by the equation of Cheng-Prusoff. [formula] [Notes]1. "B" means the amount of radioactivity of ^3 H-CHA bound in the presence of a test compound at various concentrations.
2. "T" means the amount of radioactivity of ^3 H-CHA bound in the absence of a test compound.
3. "IN" means the amount of radioactivity of ^3 H-CHA bound in the presence of 10 μM N^6 -(L-2-phenylisopropyl)-adenosine (Sigma Co.)

Wistar rats = test: Diuretic Effect; format: in vivo, rat (Wistar, male); details: for Increase in amount of K+ excreted / Increase in amount of Na+ excreted / Increase in amount of urine: control 0
Protocol: The experiment was carried out by using Wistar rats (male; 150 to 300 g). The rats were starved for 18 hours prior to the administration of a test compound (n=4 to 5). After a test compound dissolved in 0.4% methanol, 1% dimethylsulfoxde, and 0.01N sodium hydroxide/physiological saline was administered intravenously to the rat, the physiological saline (25 ml/kg) was orally administered thereto. Alternatively, a test compound dissolved in the physiological saline (25 ml/kg) was orally administered to the rats. Urine was collected from the rats during 4 hours after the oral administration, and urine volume was measured by a graduated measuring cylinder, and the electrolytes (Na^+ and K^+) in the urine were determined by flame photometer (775A, manufactured by Hitachi, Ltd.) The test results are shown in Tables 3 and 4.

[1] = tested on: Wistar rats, glycerol-induced renal insufficiency; test: Renal-Protecting Activity (Glycerol-Induced Renal Insufficiency Model); format: in vivo, rat (Wistar, male); details: for effect on increases in serum creatinine and serum urea-nitrogen: 10 mg/kg, ip
Protocol: Renal insufficiency is the condition that homeostasis of a body fluid is unable to be maintained by disorder of renal function. It is known that subcutaneous or intramuscular administration of glycerol to rats induces acute renal insufficiency characterized by renal tubular disturbance [Can. J. Physiol.
Male Wistar rats were fisted from both food and water for 18 hours. A test compound was intraperitoneally administered to the rats (dose; 0.1 ml/100 g). After 30 minutes, the rats were anesthetized with ether and the back skin was picked up and 0.8 ml/100 […] of 50% glycerol was subcutaneously administered. Twenty four hours after the glycerol injection, the rats were anesthetized with ether and 5 ml of blood was collected from the descending aorta. A sample of the collected blood was allowed to stand for 30 minutes or longer and then centrifuged at 3,000 rpm for 10 minutes to obtain the serum. Creatinine in the serum sample and urea nitrogen in the serum were determined with an autoanalyzer (AU510, Olympus Optical Co., Ltd.) using Olympus AU500/550 exclusive reagent "Katayama" in both of creatinine test (Jaffe' method) and urea-nitrogen test (enzyme method).

[2] = 0.1 mg/kg po, 4 hours, control 1.00
[3] = 0.01 mg/kg po, 4 hours, control 1.00
[4] = 1.6 mg/kg po, 4 hours, control 1.00
[5] = 1 mg/kg ip, 24 hours after glycerol, control 4.57 ± 0.31, ***p < 0.001 (Student's t test)
[6] = 1 mg/kg ip, 24 hours after glycerol, control 164.9 ± 10.3, ***p < 0.001 (Student's t test)

SMILES: CCCn1c(=O)c2[nH]c([C@]34C[C@@H]5[C@@H](O)[C@H](C3)[C@H]3[C@@H]5[C@H]34)nc2n(CCC)c1=O [Compound 5, 8-(Trans-9-hydroxy-3-tetracyclo[3.3.1.0^3,7 .0^6,8]-nonyl)-1,3-dipropylxanthine]
- Ki (adenosine A1 receptor): 0.31 nM
- Increase in amount of K+ excreted (Wistar rats; 0.0025 mg/kg po, 4 hours): 8%
- Increase in amount of Na+ excreted (Wistar rats; 0.0025 mg/kg po, 4 hours): 68%
- Increase in amount of urine (Wistar rats; 0.0025 mg/kg po, 4 hours): 77%
- Na+/K+ (Wistar rats; 0.0025 mg/kg po, 4 hours, control 1.00): 1.56
- Increase in amount of K+ excreted (Wistar rats; 0.1 mg/kg po, 4 hours): 23%
- Increase in amount of Na+ excreted (Wistar rats; 0.1 mg/kg po, 4 hours): 277%
- Increase in amount of urine (Wistar rats; 0.1 mg/kg po, 4 hours): 256%
- Na+/K+ (Wistar rats; [2]): 3.07
- Amount of creatinine in serum ([1]; 0.01 mg/kg ip, 24 hours after glycerol, control 3.90 ± 0.24, ***p < 0.001): 2.18 ± 0.11 mg/dL
- Amount of urea-nitrogen in serum ([1]; 0.01 mg/kg ip, 24 hours after glycerol, control 124.9 ± 7.5, ***p < 0.001): 61.3 ± 6.1 mg/dL

SMILES: CCCn1c(=O)c2[nH]c(C34CC5CC3CC(O)(C5)C4)nc2n(CCC)c1=O (stereo not drawn) [Compound 3, 8-(1-hydroxy-3-tricyclo[3.3.1.0^3,7]nonyl)-1,3-dipropylxanthine]
- Ki (adenosine A1 receptor): 0.5 nM
- Increase in amount of K+ excreted (Wistar rats; 0.025 mg/kg po, 4 hours): 32%
- Increase in amount of Na+ excreted (Wistar rats; 0.025 mg/kg po, 4 hours): 238%
- Increase in amount of urine (Wistar rats; 0.025 mg/kg po, 4 hours): 324%
- Na+/K+ (Wistar rats; 0.025 mg/kg po, 4 hours, control 1.00): 2.55
- Increase in amount of K+ excreted (Wistar rats; 0.1 mg/kg po, 4 hours): 18%
- Increase in amount of Na+ excreted (Wistar rats; 0.1 mg/kg po, 4 hours): 272%
- Increase in amount of urine (Wistar rats; 0.1 mg/kg po, 4 hours): 356%
- Na+/K+ (Wistar rats; [2]): 3.15
- Amount of creatinine in serum ([1]; 0.03 mg/kg ip, 24 hours after glycerol, control 3.57 ± 0.21, ***p < 0.001): 1.64 ± 0.17 mg/dL
- Amount of urea-nitrogen in serum ([1]; 0.03 mg/kg ip, 24 hours after glycerol, control 149.7 ± 7.0, ***p < 0.001): 49.0 ± 6.9 mg/dL

SMILES: CCCn1c(=O)c2[nH]c([C@@]34C[C@H]5C[C@@H]3C[C@@H](C4)[C@@H]5O)nc2n(CCC)c1=O [Compound 1, 8-(Trans-9-hydroxy-3-tricyclo[3.3.1.0^3,7]nonyl)-1,3-dipropylxanthine]
- Ki (adenosine A1 receptor): 0.23 nM
- Amount of K+ excreted (Wistar rats; 3 μg/kg iv, n = 5, 4 hours, control 1.47 ± 0.31): 1.24 ± 0.10 mEq/kg
- Na+/K+ (Wistar rats; 3 μg/kg iv, n = 5, 4 hours, control 1.52): 2.99
- Amount of Na+ excreted (Wistar rats; 3 μg/kg iv, n = 5, 4 hours, control 2.23 ± 0.61, **p < 0.01 (Dunnett's test)): 3.71 ± 0.12 mEq/kg
- Amount of urine (Wistar rats; 3 μg/kg iv, n = 5, 4 hours, control 14.5 ± 1.8, *p < 0.05 (Dunnett's test)): 26.4 mL/kg
- Increase in amount of K+ excreted (Wistar rats; 0.01 mg/kg po, 4 hours): 11%
- Increase in amount of Na+ excreted (Wistar rats; 0.01 mg/kg po, 4 hours): 139%
- Increase in amount of urine (Wistar rats; 0.01 mg/kg po, 4 hours): 99%
- Na+/K+ (Wistar rats; [3]): 2.16
- Increase in amount of K+ excreted (Wistar rats; 0.1 mg/kg po, 4 hours): -9%
- Increase in amount of Na+ excreted (Wistar rats; 0.1 mg/kg po, 4 hours): 148%
- Increase in amount of urine (Wistar rats; 0.1 mg/kg po, 4 hours): 105%
- Na+/K+ (Wistar rats; [2]): 2.72
- Amount of creatinine in serum ([1]; 0.01 mg/kg ip, 24 hours after glycerol; control 4.35 ± 0.23; **^1) p < 0.01 (Dunnett's test)): 2.00 ± 0.21 mg/dL
- Amount of urea-nitrogen in serum ([1]; 0.01 mg/kg ip, 24 hours after glycerol; control 139.7 ± 10.2; marked ***^1)): 69.9 ± 8.4 mg/dL
- Amount of creatinine in serum ([1]; 0.1 mg/kg ip, 24 hours after glycerol; control 4.35 ± 0.23; **^1) p < 0.01 (Dunnett's test)): 2.32 ± 0.16 mg/dL
- Amount of urea-nitrogen in serum ([1]; 0.1 mg/kg ip, 24 hours after glycerol; control 139.7 ± 10.2; **^1) p < 0.01 (Dunnett's test)): 64.4 ± 4.5 mg/dL

SMILES: CCCn1c(=O)c2[nH]c([C@]34C[C@@H]5C[C@H](C3)[C@@H](O)[C@H]4C5)nc2n(CCC)c1=O (relative stereo) [Compound 2, 8-(trans-6-hydroxy-3-tricyclo[3.3.1.0^3,7]nonyl)-1,3-dipropylxanthine]
- Ki (adenosine A1 receptor): 0.24 nM
- Increase in amount of K+ excreted (Wistar rats; 0.1 mg/kg po, 4 hours): 12%
- Increase in amount of Na+ excreted (Wistar rats; 0.1 mg/kg po, 4 hours): 107%
- Increase in amount of urine (Wistar rats; 0.1 mg/kg po, 4 hours): 134%
- Na+/K+ (Wistar rats; [2]): 1.85
- Increase in amount of K+ excreted (Wistar rats; 1.6 mg/kg po, 4 hours): 15%
- Increase in amount of Na+ excreted (Wistar rats; 1.6 mg/kg po, 4 hours): 220%
- Increase in amount of urine (Wistar rats; 1.6 mg/kg po, 4 hours): 297%
- Na+/K+ (Wistar rats; [4]): 2.77
- Amount of creatinine in serum [1, 5]: 1.88 ± 0.20 mg/dL
- Amount of urea-nitrogen in serum [1, 6]: 58.0 ± 8.8 mg/dL

SMILES: NS(=O)(=O)c1cc(C(=O)O)c(NCc2ccco2)cc1Cl [furosemide, reference compound]
- effect on increases in serum creatinine and serum urea-nitrogen [1]: a tendancy of deterioration

SMILES: CCCn1c(=O)c2[nH]c([C@@]34C[C@H]5C[C@@H]3C[C@@H](C4)[C@H]5O)nc2n(CCC)c1=O [Compound 4, 8-(cis-9-hydroxy-3-tricyclo[3.3.1.0^3,7]nonyl)-1,3-dipropylxanthine]
- Ki (adenosine A1 receptor): 0.31 nM
- Increase in amount of K+ excreted (Wistar rats; 0.01 mg/kg po, 4 hours): 43%
- Increase in amount of Na+ excreted (Wistar rats; 0.01 mg/kg po, 4 hours): 167%
- Increase in amount of urine (Wistar rats; 0.01 mg/kg po, 4 hours): 200%
- Na+/K+ (Wistar rats; [3]): 1.86
- Increase in amount of K+ excreted (Wistar rats; 1.6 mg/kg po, 4 hours): 35%
- Increase in amount of Na+ excreted (Wistar rats; 1.6 mg/kg po, 4 hours): 180%
- Increase in amount of urine (Wistar rats; 1.6 mg/kg po, 4 hours): 232%
- Na+/K+ (Wistar rats; [4]): 2.07
- Amount of creatinine in serum [1, 5]: 2.00 ± 0.17 mg/dL
- Amount of urea-nitrogen in serum [1, 6]: 76.0 ± 8.8 mg/dL

SMILES: Cn1c(=O)c2[nH]cnc2n(C)c1=O [aminophylline, reference compound]
- effect on increases in serum creatinine and serum urea-nitrogen [1]: only a weak inhibitory tendancy
